Measured values: ChEMBL document CHEMBL4765467, “Improving Thermodynamic Stability and Anticoagulant Activity of a Thrombin Binding Aptamer by Incorporation of 8-trifluoromethyl-2'-deoxyguanosine” (J Med Chem, 2021)
Active and inactive are the calls of the source. The rule behind the calls is not given here.

How the values were obtained:
Plasma [1] = assay: Anticoagulant activity in human plasma assessed prothrombin time at 0.25 to 1 uM; format: functional; details: dose 0.25-1 µM
[2] = Thermodynamic stability assessed as change in melting temperature by CD spectroscopy relative to TBA; format: physicochemical
[3] = Stability in 50% human plasma assessed as compound degradation at 50 uM measured within 3 hrs by PAGE analysis relative to TBA; format: ADME, cell-free
[4] = Stability in 50% human plasma assessed as compound degradation at 50 uM measured within 3 hrs by PAGE analysis; format: ADME, cell-free
Plasma [5] = assay: Anticoagulant activity in human plasma assessed prothrombin time in presence of complementary sequence of TBA; format: functional, cell-free
Plasma [6] = assay: Anticoagulant activity in human plasma assessed prothrombin time in presence of 1.5 fold complementary sequence of TBA; format: functional, cell-free
Rattus norvegicus = assay: Anticoagulant activity in ferric chloride-induced Sprague-Dawley rat carotid thrombosis model assessed as reduction in thrombus formation by measuring thrombus area at […], iv by H and E staining based analysis; format: functional; design: scale not given: the % may be the effect or the level left

SMILES	PT (Plasma [1]) [s]	deltaTm [2] [°C]	Stabilty [3]	Stabilty [4]	Activity (Plasma [5])	Activity (Plasma [6])	Activity (Rattus norvegicus) [%]
Cc1cn([C@H]2C[C@H](OP(=O)(O)OC[C@H]3O[C@@H](n4c(C(F)(F)F)nc5c(=O)[nH]c(N)nc54)C[C@@H]3OP(=O)(O)OC[C@H]3O[C@@H](n4cnc5c(=O)[nH]c(N)nc54)C[C@@H]3OP(=O)(O)OC[C@H]3O[C@@H](n4cc(C)c(=O)[nH]c4=O)C[C@@H]3OP(=O)(O)OC[C@H]3O[C@@H](n4cnc5c(=O)[nH]c(N)nc54)C[C@@H]3OP(=O)(O)OC[C@H]3O[C@@H](n4cc(C)c(=O)[nH]c4=O)C[C@@H]3OP(=O)(O)OC[C@H]3O[C@@H](n4cnc5c(=O)[nH]c(N)nc54)C[C@@H]3OP(=O)(O)OC[C@H]3O[C@@H](n4cnc5c(=O)[nH]c(N)nc54)C[C@@H]3OP(=O)(O)OC[C@H]3O[C@@H](n4cc(C)c(=O)[nH]c4=O)C[C@@H]3OP(=O)(O)OC[C@H]3O[C@@H](n4cc(C)c(=O)[nH]c4=O)C[C@@H]3OP(=O)(O)OC[C@H]3O[C@@H](n4c(C(F)(F)F)nc5c(=O)[nH]c(N)nc54)C[C@@H]3OP(=O)(O)OC[C@H]3O[C@@H](n4cnc5c(=O)[nH]c(N)nc54)C[C@@H]3O)[C@@H](COP(=O)(O)O[C@H]3C[C@H](n4cc(C)c(=O)[nH]c4=O)O[C@@H]3COP(=O)(O)O[C@H]3C[C@H](n4cnc5c(=O)[nH]c(N)nc54)O[C@@H]3COP(=O)(O)O[C@H]3C[C@H](n4cnc5c(=O)[nH]c(N)nc54)O[C@@H]3COP(=O)(O)O)O2)c(=O)[nH]c1=O	26.7	16.8	Stable	Unstable	inactive	inactive	–
Cc1cn([C@H]2C[C@H](OP(=O)(O)OC[C@H]3O[C@@H](n4cnc5c(=O)[nH]c(N)nc54)C[C@@H]3OP(=O)(O)OC[C@H]3O[C@@H](n4cnc5c(=O)[nH]c(N)nc54)C[C@@H]3OP(=O)(O)OC[C@H]3O[C@@H](n4cc(C)c(=O)[nH]c4=O)C[C@@H]3OP(=O)(O)OC[C@H]3O[C@@H](n4cnc5c(=O)[nH]c(N)nc54)C[C@@H]3OP(=O)(O)OC[C@H]3O[C@@H](n4cc(C)c(=O)[nH]c4=O)C[C@@H]3OP(=O)(O)OC[C@H]3O[C@@H](n4cnc5c(=O)[nH]c(N)nc54)C[C@@H]3OP(=O)(O)OC[C@H]3O[C@@H](n4cnc5c(=O)[nH]c(N)nc54)C[C@@H]3OP(=O)(O)OC[C@H]3O[C@@H](n4cc(C)c(=O)[nH]c4=O)C[C@@H]3OP(=O)(O)OC[C@H]3O[C@@H](n4cc(C)c(=O)[nH]c4=O)C[C@@H]3OP(=O)(O)OC[C@H]3O[C@@H](n4c(C(F)(F)F)nc5c(=O)[nH]c(N)nc54)C[C@@H]3OP(=O)(O)OC[C@H]3O[C@@H](n4cnc5c(=O)[nH]c(N)nc54)C[C@@H]3O)[C@@H](COP(=O)(O)O[C@H]3C[C@H](n4cc(C)c(=O)[nH]c4=O)O[C@@H]3COP(=O)(O)O[C@H]3C[C@H](n4cnc5c(=O)[nH]c(N)nc54)O[C@@H]3COP(=O)(O)O[C@H]3C[C@H](n4cnc5c(=O)[nH]c(N)nc54)O[C@@H]3COP(=O)(O)O)O2)c(=O)[nH]c1=O	29.1	7.6	–	Unstable	inactive	inactive	60
